Consider two compounds from ChEMBL document CHEMBL5120978, “Application of Compositions Comprising a KRAS G12C Inhibitor and an EGFR Inhibitor for the Potential Treatment of Cancer” (2022).

Type in all cases: functional
In assay [1] the test system is NCI-H2122. Kind of assay: Anti-tumor activity against human NCI-H2122 cells xenografted with nude mouse assessed as inhibition of tumor growth inhibition at 50 mg/kg, po QD for 21 days co-treated with 50 mg/kg, po QD Erlotinib relative to control. The following applies: NCI-H2122, 504 h, time 21 day, read-out: TGI. For orientation: Xenograft models place foreign cells or tissue in a host animal.

The test system of assay [2] is NCI-H2122. The experiment in a line: Anti-tumor activity against human NCI-H2122 cells xenografted with nude mouse assessed as inhibition of tumor growth inhibition at 50 mg/kg, po QD for 21 days relative to control. The following applies: NCI-H2122, 504 h, time 21 day, read-out: TGI.
Assay [3] can be described thus: Anti-tumor activity against human PDX CR6256 cells xenografted with nude BALB/c mouse assessed as inhibition of tumor growth inhibition at 30 mg/kg, po QD for 21 days co-treated with 20 mg/kg, ip QD Cetuximab relative to control. The following applies: PDX CR6256, 504 h, time 21 day, read-out: TGI.

With `C=CC(=O)N1CCN(c2nc(OC[C@@H]3CCCN3C)nc3c(F)c(-c4nc(N)cc(C)c4C(F)(F)F)c(Cl)cc23)[C@@H](C)C1` [DIVARASIB], the inhibition in vivo at 50 mg/kg was 117% in assay [1] and 93% in assay [2]. The inhibition in vivo at 30 mg/kg in assay [3] stood at 133%.
Consider `C#Cc1cccc(Nc2ncnc3cc(OCCOC)c(OCCOC)cc23)c1` [ERLOTINIB], for which the inhibition in vivo at 50 mg/kg in assay [2] was determined as 48%.
